According to patent US20080188494A1 (priority 2005, published 2008):

Experiments:
Plasmopara viticola [1] = assay: Activity against peronospora of grapevines caused by Plasmopara viticola (Use Example 3); type: in vivo; conditions: 250 ppm, potted vines sprayed to runoff, inoculated next day; untreated plants 90% infected
Protocol: (§1) The active compounds were prepared as a stock solution comprising 25 mg of active compound which was made up to 10 ml using a mixture of acetone and/or DMSO and the emulsifier Uniperol® EL (wetting agent having emulsifying and dispersing action based on ethoxylated alkylphenols) in a volume ratio of solvent/emulsifier of 99/1. The mixture was then made up to 100 ml with water. This stock solution was diluted with the solvent/emulsifier/water mixture described to the concentration of active compounds stated below.
(§2) Leaves of potted vines were sprayed to runoff point with an aqueous suspension having the concentration of active compounds stated below. The next day, the undersides of the leaves were inoculated with an aqueous sporangia suspension of Plasmopara viticola. The vines were then initially placed in a water-vapor-saturated chamber at 24° C. for 48 hours and then in a greenhouse at temperatures between 20° C. and 30° C. for 5 days. After this time, the plants were once more placed in a humid chamber for 16 hours to accelerate the eruption of sporangiospores. The extent of the development of the infection on the undersides of the leaves was then determined visually.

Plasmopara viticola [2] = assay: Activity against peronospora of grapevines caused by Plasmopara viticola (Comparative Example 1, inoculation next day); type: in vivo; conditions: 250 ppm, potted vines sprayed to runoff, inoculated next day; untreated plants 90% infected
Protocol: as §1, §2

Plasmopara viticola [3] = assay: Activity against peronospora of grapevines caused by Plasmopara viticola, 7 day protective treatment (Comparative Example 2); type: in vivo; conditions: 250 ppm, potted vines, inoculated 7 days after spraying; untreated plants 90% infected
Protocol: as §1
Leaves of potted vines were sprayed to runoff point with an aqueous suspension having the concentration of active compounds stated below. To be able to assess the persistency of the substances, the plants were, after the spray coating had dried on, placed in a greenhouse for 7 days. Only then were the leaves inoculated with an aqueous zoospore suspension of Plasmopara viticola. The vines were then initially placed in a water-vapor-saturated chamber at 24° C. for 48 hours and then in a greenhouse at temperatures between 20 and 30° C. for 5 days. After this time, the plants were once more placed in a humid chamber to accelerate the eruption of sporangiospores. The extent of the development of the infection on the undersides of the leaves was then determined visually.

| Compound | infection of the plants (undersides of leaves, determined visually) (Plasmopara viticola [1]) | melting point [°C] | infection of the plants (undersides of leaves, determined visually) (Plasmopara viticola [2]) [%] | infection of the plants (undersides of leaves, determined visually) (Plasmopara viticola [3]) [%] |
| --- | --- | --- | --- | --- |
| CCCc1nc2ncnn2c(N)c1CCc1ccccc1 [I-2, 7-amino-6-(2-phenylethyl)-5-propyl-(1,2,4)-triazolo-(1,5-a)-pyrimidine] | no infection | 190 to 191 |  |  |
| CCc1nc2ncnn2c(N)c1CCc1ccccc1 [I-1, 7-amino-5-ethyl-6-(2-phenylethyl)-(1,2,4)-triazolo-(1,5-a)-pyrimidine] | no infection | 210 to 211 |  |  |
| Cc1nc2ncnn2c(N)c1CCCc1ccccc1 [Compound A] |  |  | 90 | 70 |
